Test results reported in patent publication US10519132B2, “Isocorydine derivatives, preparation method and use thereof” (Lanzhou Institute of Chemical Physics, Chinese Academy of …, priority 2017, dated 2019).
In brackets after ≈: the same amount, converted by molar mass. Where two headings read alike, the source gives them in different places.

Assays:
human brain glioma U251 = test: MTT growth inhibition on U251; assay type: cell-based; conditions: U-251, after 48 h of action
Method: (§2) By using an MTT method, a sample solution to be tested was added to a 96-well plate in which cancer cells were adherently grown. Culturing was performed for a certain period, and the growth inhibition effect of a compound on a human cancer cell strain for primary screening was measured to determine the anti-cancer activity of the compound.
(§3) Cell culture: A cell incubator was set to conditions of 37° C., 5% CO2, and a saturated humidity, cells were cultured under these conditions, and the cell medium was a DMEM complete medium, wherein 10% fetal bovine serum, 100 IU/mL penicillin, and 100 μg/mL streptomycin were comprised.
The single cell suspension was diluted to 5×10^3/100 μL after counting, inoculated on a 96-well cell culture plate (triplicate), and adherently cultured overnight; […]
(§4) The culture liquid was discarded, 100 μL of DMSO was added, low-speed oscillation was performed for 10 min by placing on a shaker, and the spectrophotometric value of each well was measured at a wavelength of 490 nm by using a microplate reader. Statistical analysis was performed and tumor cell growth inhibition rate was calculated according to the equation: Growth inhibition rate=(OD value of control group−OD value of experimental group)/OD value of control group.

Vimentin = test: Western blotting, Vimentin expression in HepG2 cells; assay type: cell-based, human; conditions: FICD experiment (FIG. 12)
Method: (§1) Method: Gel electrophoresis of protein samples. Gel formulation: All components were added to a small beaker according to a formulation of a separation gel, uniformly mixed with slightly shaking to prevent the generation of bubbles, quickly applied to a seam of a glass plate with a 1 mL pipette, and then blocked with double distilled water to prevent oxidation. After 30 min, the separation gel solidified, the double distilled water thereof was poured off, waster was suctioned with a filter paper, a 5% concentration gel was formulated, TEMED was finally loaded onto the glass plate, and a 1.0 mm comb was inserted into the concentration gel and placed at room temperature for 30 min. The comb was slightly, vertically, and carefully pulled up, various groups of 20 μL protein samples were pipetted with a microsyringe, an equal volume of a loading buffer and an equal volume of a loading buffer containing 3 μL of Marker were separately added to a loading well, an electrophoresis instrument was switched on after electrodes were plugged, gels were run at 75V for 30 min, and the voltage was changed to 120V and gels were run for 2 h when bromophenol blue reaches the separation gel. Membrane transfer: A PVDF membrane having a suitable size was cut according to the size of the gel, placed in a methanol solution for 1 min, lifted, and placed and soaked together with a well cut filter paper in a previously precooled membrane transfer buffer. A sponge pad, three layers of filter paper, a gel, three layers of filter paper, and a sponge pad, in this order from top to bottom, were placed in a membrane transfer tank, and a precooled membrane transfer buffer was then added. Several ice bags were placed circumferentially to prevent an excessively hot external environment, and electrodes were plugged and membrane transfer was performed at a constant current of […] for 2.5 hours. Blocking and incubation of antibodies: A transferred membrane was cut into desired bands, which were placed in a blocking solution of 5% skim milk powder, placed on a shaker, and shaken at room temperature at a low speed for 1 h. A primary antibody was diluted with the blocking solution, a corresponding antibody was pipetted and added to a zip lock bag, the PVDF membrane was then placed in the antibody dilution, bubbles in the zip lock bag were evacuated, and the zip lock bag was sealed and placed in a refrigerator at 4° C. overnight. The membrane was withdrawn from the zip lock bag on the second day, and placed in a clean dish. A TBST solution was added and washed 3 times on a low-speed shaker, 10 min for each time. […]

[1] = test system: C-Myc, Ki-67, CylinD1, β-Catenin protein; test: Western blotting, protein expression in HepG2 cells; assay type: cell-based, human; conditions: sorafenib 4 μg/mL, high FICD dosage 20 μg/mL, combination 4 μg/mL sorafenib+10 μg/mL FICD
Method: as §1

HepG2 cells = test: Apoptosis induction by laser confocal scanning microscope; assay type: cell-based, human; conditions: HepG2, 48 h
Method: Two solutions (a former one and a later one) were mixed, centrifugation was performed at 1000 r/min for 5 min, the supernatant was discarded, and washing was performed for 3 times with PBS. The cell precipitate was resuspended in Binding Buffer, 10 μL of a FITC-Annen V staining liquid was added, homogenized by pipetting slightly, and reaction was performed under protection from light. PI was added for staining for 15 min, centrifugation was performed, the supernatant was discarded, and washing was performed for 3 times again with PBS. A glass slide was loaded by applying the cell precipitate thereto and mounted with non-fluorescent buffering glycerol, a laser confocal scanning microscope was immediately used for observation and taking photographs at wavelengths of 488 nm and 560 nm. Meanwhile, cells without AnneixnV-FITC and PI added were used as a negative control.

[2] = test system: human gastric cancer cell strain MGC-803; test: MTT growth inhibition on MGC-803; conditions: Homo sapiens;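 note: adherent cells exposed to compound over a concentration gradient for 24, 48 and 72 h, MTT absorbance at 490 nm, inhibition relative to untreated control wells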
Method: as §2, §3
The single cell suspension was diluted to 5×10^3/100 μL after counting, inoculated on a 96-well cell culture plate (triplicate), and adherently cultured overnight;
After 24 h of adhesion, the complete medium was discarded, 100 μL-sample-solutions to be tested having different concentrations were sequentially added to the 96-well plate according to a concentration gradient, and incubations were continued for 24 h, 48 h, and 72 h;
The culture liquid was discarded, a 0.5 mg/mL MTT diluted working liquid was added, and incubation was performed for 4 h by placing in an incubator;
as §4
Culturing was performed for a certain period, the growth inhibition effect of a compound on 3 human cancer cell strains for primary screening was measured to determine the anti-cancer activity of the compound, and a growth inhibition curve was plotted.

- IC50 (human brain glioma U251): 16.8 ± 0.28 µg/mL (≈ 29.1 µM)
- IC50 ([2]; MGC-803, 48 h, read-out: IC50 MGC-803, after 48 h of action): 15.6 ± 2.4 µg/mL
- IC50 ([2]; MGC-803, read-out: IC50 MGC-803, Table 1, MTT): 16.6 µM
- IC50 ([2]; MGC-803, read-out: IC50 MGC-803, Table 2, MTT): 16.6 µM
Structure (SMILES): COc1cc(NC(=O)Nc2ccc(Cl)c(C(F)(F)F)c2)c2c(c1O)-c1c(OC)c(OC)cc3c1C(C2)N(C)CC3 (stereo not shown) [Compound 1]
- Vimentin expression (Vimentin): significantly increased
- expressions of C-Myc, Ki-67, CylinD1 and β-Catenin protein compared to the blank group [1]: significantly reduced
- apoptosis and cell morphology, Anneixn V-FITC and PI double-staining (HepG2 cells): apoptoses occurred during various phases
